US11564923B2, “Compounds and pharmaceutical compositions thereof for the treatment of inflammatory disorders” (Galapagos NV, priority 2017, dated 2023)

Legend:
[1] = test system: IL-12 activation of STAT4 in NK-92 cells; assay: IL-12 activation of STAT4 in NK-92 cells using AphaLISA SureFire technology; type: cell-based; details: Homo sapiens, NK92; IL-12 activation of STAT4 in NK-92 cells, AlphaLISA SureFire; average IC50; read-out: IL12 pSTAT4 IC50
Description: IL-2 is added freshly to the medium with each medium refreshment step. Cells are cultured in a humidified incubator at 37° C. 5% CO2.
A subcultured fraction of NK-92 cells is washed once in culture medium without rhIL-2 the day before the experiment and incubated overnight in a culture flask.
5% CO2. […] NK-92 cells are triggered with rhIL-12 for 30 min at 37° C. 5% CO2.
After 30 min of cytokine stimulation the cells are lysed by addition of 15 μL 5× lysis buffer (supplemented with the AlphaLISA kit). After 10 minutes, plates are frozen at −80° C. overnight and the next day the levels of phospho-STAT4 are quantified using the AlphaLISA SureFire ULTRA p-STAT4 (Tyr693) (Perkin Elmer, Catalogue number ALSU-PST4-A10K) according to the manufacturers instructions. AlphaLISA signal (relative light units) is measured using an Envision (Perkin Elmer).
(§1) The percentage inhibition is calculated as: […]
RLU(trigger/veh): Relative lumescent signal determined in presence of vehicle and trigger
RLU(test compound): Relative luminescent signal determined in presence of test compounds and trigger
PIN values are plotted for compounds tested in dose-response and IC50 values are derived using GraphPad Prism Software applying non-linear regression (sigmoidal) curve fitting. The data are expressed as the average IC50 from different experiments.

[2] = test system: IFNα activation of STAT1 in PBMC; assay: IFNα activation of STAT1 in PBMC; type: cell-based; details: Homo sapiens; IFNα activation of STAT1 in PBMC; average IC50; read-out: IFNα signaling inhibitory potency IC50
Description: After these 2 wash steps the cell pellet is dissolved in ammonium chloride buffer (1.5 M NH4Cl, 100 mM NaHCO3 and 10 mM Na2.EDTA) for lysis of the red blood cells.
PBMC are treated with test compound for 30 min at 37° C. 5% CO2. […] After 30 min of test compound/vehicle pre-treatment, PBMC are stimulated for 30 min at 37° C. 5% CO2 with recombinant human IFNα (PeproTech, catalog number 300-02A) at a final concentration of 5 ng/mL by addition of 20 μL (10× concentrated) cytokine trigger to obtain a final volume of 200 μL per well.
After 30 min of cytokine stimulation, 200 μL of cell suspension is transferred to a 96-well V-bottom plate, centrifugated for 5 min at 1000 rpm to pellet cells, followed by removal of supernatant.
as §1
RCLU(vehicle control): Relative Chemiluminescent signal determined in presence of vehicle and trigger
RCLU(test compound): Relative Chemiluminescent signal determined in presence of test compounds and trigger
RCLU(positive control): Relative Chemiluminescent signal determined in presence of positive control and trigger
PIN values are plotted for compounds tested in dose-response and average IC50 values are derived using GraphiPad Prism Software applying non-linear regression (sigmoidal) curve fitting.

[3] = target: T1, Recombinant human TYK2 catalytic domain (amino acids 871-1187) (Homo sapiens, UniProt P29597); assay: TYK2 radioactive assay polyGT substrate; type: biochemical; also: 0.1 µM ATP
T1 construct: catalytic domain (amino acids 871-1187)
T1 sequence (P29597 871-1187): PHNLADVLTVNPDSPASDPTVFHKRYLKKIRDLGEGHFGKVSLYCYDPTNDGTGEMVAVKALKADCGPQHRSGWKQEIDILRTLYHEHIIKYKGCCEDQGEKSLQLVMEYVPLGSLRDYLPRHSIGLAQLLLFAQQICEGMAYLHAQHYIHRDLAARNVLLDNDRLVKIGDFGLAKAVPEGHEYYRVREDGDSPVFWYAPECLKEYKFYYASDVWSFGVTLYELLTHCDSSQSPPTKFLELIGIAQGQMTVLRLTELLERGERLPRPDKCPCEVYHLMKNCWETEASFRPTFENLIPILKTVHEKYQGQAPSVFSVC
Description: After 120 min at 30° C., reactions were stopped by adding 25 μL/well of 150 mM phosphoric acid. […] Plates were washed 6 times with 300 μL per well of a 75 mM phosphoric acid solution and the bottom of the plates is sealed. […] Kinase activity is calculated by subtracting counts per min (cpm) obtained in the presence of a positive control inhibitor (10 μM staurosporine) from cpm obtained in the presence of vehicle. The ability of a test compound to inhibit this activity (or percentage inhibition) is determined as: […]
cpm test compound=cpm determined for sample with test compound present cpm control=cpm determined for sample with positive control inhibitor cpm vehicle=cpm determined in the presence of vehicle
Dose dilution series were prepared for the compounds enabling the testing of dose-response effects in the TYK2 assay and the calculation of the IC50 for each compound. Each compound is routinely tested at concentration of 20 μM followed by a 1/5 serial dilution, 10 points in a final concentration of 1% DMSO.

SMILES | IC50 [1] | IC50 [2] | IC50 [3]
Cc1cc(C#N)ncc1Oc1cc(Nc2ccc(C(=O)N3CCN(C4CCC4)CC3)cn2)c2ncn(C)c2n1 [Compound 47, 5-[7-[[5-(4-cyclobutylpiperazine-1-carbonyl)pyridin-2-yl]amino]-3-methylimidazo[4,5-b]pyridin-5-yl]oxy-4-methylpyridine-2-carbonitrile] | 84 nM | 52 nM | 2.02 nM
Cc1cc(C#N)ncc1Oc1cc(Nc2ccc(N3CCO[C@@H](C)C3)nn2)c2ncn(C)c2n1 [Compound 44, 4-Methyl-5-{3-methyl-7-[6-((S)-2-methyl-morpholin-4-yl)-pyridazin-3-ylamino]-3H-imidazo[4,5-b]pyridin-5-yloxy}-pyridine-2-carbonitrile] | 50 nM | 79 nM | 1.97 nM
Cc1cc(C#N)ncc1Oc1cc(Nc2ccc(N3C[C@@H](C)O[C@@H](C)C3)nn2)c2ncn(C)c2n1 [Compound 43, (±)-5-{7-[6-((2R,6S)-2,6-Dimethyl-morpholin-4-yl)-pyridazin-3-ylamino]-3-methyl-3H-imidazo[4,5-b]pyridin-5-yloxy}-4-methyl-pyridine-2-carbonitrile] | 49 nM | 70 nM | 1.58 nM
Cc1cc(C#N)ncc1Oc1cc(Nc2ccc(C(=O)N3CC4CC3CO4)cn2)c2ncn(C)c2n1 (stereo not drawn) [Compound 158, 4-methyl-5-[3-methyl-7-[[5-(2-oxa-5-azabicyclo[2.2.1]heptane-5-carbonyl)pyridin-2-yl]amino]imidazo[4,5-b]pyridin-5-yl]oxypyridine-2-carbonitrile] | 204 nM | 87 nM | 1.21 nM
Cc1cc(C#N)ncc1Oc1cc(Nc2ccc(C(=O)N3CC(C)(O)C3)cn2)c2ncn(C)c2n1 [Compound 119, 5-[7-[[5-(3-hydroxy-3-methyl-azetidine-1-carbonyl)-2-pyridyl]amino]-3-methyl-imidazo[4,5-b]pyridin-5-yl]oxy-4-methyl-pyridine-2-carbonitrile] | 261 nM | 81 nM | 2.56 nM
COC1CN(C(=O)c2ccc(Nc3cc(Oc4cnc(C#N)cc4C)nc4c3ncn4C)nc2)C1 [Compound 103, 5-[7-[[5-(3-methoxyazetidine-1-carbonyl)-2-pyridyl]amino]-3-methyl-imidazo[4,5-b]pyridin-5-yl]oxy-4-methyl-pyridine-2-carbonitrile] | 63.5 nM | 68 nM | 2.73 nM
CCc1cc(C#N)ncc1Oc1cc(Nc2ccc(C(=O)N3CCOCC3)cn2)c2ncn(C)c2n1 [Compound 7, 4-Ethyl-5-{3-methyl-7-[5-(morpholine-4-carbonyl)-pyridin-2-ylamino]-3H-imidazo[4,5-b]pyridin-5-yloxy}-pyridine-2-carbonitrile] | 133 nM | 49 nM | 0.59 nM
Cc1cc(C#N)ncc1Oc1cc(Nc2ccc(C(=O)N3C[C@H](O)[C@@H](N4CCOCC4)C3)cn2)c2ncn(C)c2n1 [Compound 154, 5-{7-[5-((3S,4S)-3-Hydroxy-4-morpholin-4-yl-pyrrolidine-1-carbonyl)-pyridin-2-ylamino]-3-methyl-3H-imidazo[4,5-b]pyridin-5-yloxy}-4-methyl-pyridine-2-carbonitrile] | 8720 nM | 351 nM | 3.36 nM
Cc1cc(C#N)ncc1Oc1cc(Nc2ccc(C(=O)N3CCOC[C@@H]3C)cn2)c2ncn(C)c2n1 [Compound 147, 4-methyl-5-[3-methyl-7-[[5-[(3S)-3-methylmorpholine-4-carbonyl]pyridin-2-yl]amino]imidazo[4,5-b]pyridin-5-yl]oxypyridine-2-carbonitrile] | 213 nM | 121 nM | 1.66 nM
Cc1cc(C#N)ncc1Oc1cc(Nc2ccc(C(=O)N3CCN(C(C)C)CC3)cn2)c2ncn(C)c2n1 [Compound 46, 4-methyl-5-[3-methyl-7-[[5-(4-propan-2-ylpiperazine-1-carbonyl)pyridin-2-yl]amino]imidazo[4,5-b]pyridin-5-yl]oxypyridine-2-carbonitrile] | 210 nM | 76 nM | 1.47 nM
Cc1cc(C#N)ncc1Oc1cc(Nc2ccc(C(=O)N3CC(OC(C)C)C3)cn2)c2ncn(C)c2n1 [Compound 137, 4-methyl-5-[3-methyl-7-[[5-(3-propan-2-yloxyazetidine-1-carbonyl)pyridin-2-yl]amino]imidazo[4,5-b]pyridin-5-yl]oxypyridine-2-carbonitrile] | 89 nM | 62 nM | 2.32 nM
Cc1cc(C#N)ncc1Oc1cc(Nc2ccc(OC3CN(C)C3)nn2)c2ncn(C)c2n1 [Compound 90, 4-methyl-5-[3-methyl-7-[[6-(1-methylazetidin-3-yl)oxypyridazin-3-yl]amino]imidazo[4,5-b]pyridin-5-yl]oxypyridine-2-carbonitrile] | 1520 nM | 288 nM | 12.4 nM
Cc1cc(C#N)ncc1Oc1cc(Nc2ccc(N3CCN(C)CC3)cn2)c2ncn(C)c2n1 [Compound 50, 4-methyl-5-[3-methyl-7-[[5-(4-methylpiperazin-1-yl)pyridin-2-yl]amino]imidazo[4,5-b]pyridin-5-yl]oxypyridine-2-carbonitrile] | 248 nM | 95 nM | 5.54 nM
Cc1cc(C#N)ncc1Oc1cc(Nc2ccc(C(=O)N3CCNCC3)cn2)c2ncn(C)c2n1 [Compound 178, 4-methyl-5-[3-methyl-7-[[5-(piperazine-1-carbonyl)pyridin-2-yl]amino]imidazo[4,5-b]pyridin-5-yl]oxypyridine-2-carbonitrile] | 2570 nM | 189 nM | 3.39 nM
Cc1cc(C#N)ncc1Oc1cc(Nc2ccc(C(=O)N3CC[C@H](N(C)C)C3)cn2)c2ncn(C)c2n1 [Compound 133, 5-[7-[[5-[(3S)-3-(dimethylamino)pyrrolidine-1-carbonyl]pyridin-2-yl]amino]-3-methylimidazo[4,5-b]pyridin-5-yl]oxy-4-methylpyridine-2-carbonitrile] | 981 nM | 121 nM | 6.67 nM
Cc1cc(C#N)ncc1Oc1cc(Nc2ccc(C(=O)N3CC(CO)C3)cn2)c2ncn(C)c2n1 [Compound 118, 5-[7-[[5-[3-(hydroxymethyl)azetidine-1-carbonyl]-2-pyridyl]amino]-3-methyl-imidazo[4,5-b]pyridin-5-yl]oxy-4-methyl-pyridine-2-carbonitrile] | 299 nM | 110 nM | 2.81 nM
Cc1cc(C#N)ncc1Oc1cc(Nc2ccc(C(=O)N3CCO[C@@H](C)C3)cn2)c2ncn(C)c2n1 [Compound 144, 4-methyl-5-[3-methyl-7-[[5-[(2S)-2-methylmorpholine-4-carbonyl]pyridin-2-yl]amino]imidazo[4,5-b]pyridin-5-yl]oxypyridine-2-carbonitrile] | 211 nM | 119 nM | 2.15 nM
